Activity calls are given as the source filed them. The rule behind the calls is not given here.
Legend:
Escherichia coli [1] = experiment: Antibacterial activity against Escherichia coli DH5alpha; type: functional, organism-based
Staphylococcus aureus [2] = experiment: Antibacterial activity against Staphylococcus aureus NBRC13276; type: functional, organism-based
Pseudomonas aeruginosa [3] = experiment: Antibacterial activity against Pseudomonas aeruginosa NBRC13275; type: functional, organism-based
Escherichia coli [4] = experiment: Inhibition of biofilm formation in Escherichia coli DH5alpha at 156 uM measured after 24 hrs by crystal violet staining based assay relative to control; type: functional; conditions: DH5-alpha
Escherichia coli [5] = experiment: Potency index, ratio of compound effect to c-di-GMP effect on inhibition of biofilm formation in Escherichia coli DH5alpha; type: functional
Staphylococcus aureus [6] = experiment: Inhibition of biofilm formation in Staphylococcus aureus NBRC13276 at 156 uM measured after 24 hrs by crystal violet staining based assay relative to control; type: functional
Pseudomonas aeruginosa [7] = experiment: Inhibition of biofilm formation in Pseudomonas aeruginosa NBRC13275 at 156 uM measured after 6 hrs by crystal violet staining based assay relative to control; type: functional

Row | SMILES | Activity (Escherichia coli [1]) | Activity (Staphylococcus aureus [2]) | Activity (Pseudomonas aeruginosa [3]) | inhibition at 156 µM (Escherichia coli [4]) | Ratio (Escherichia coli [5]) | inhibition at 156 µM (Staphylococcus aureus [6]) | inhibition at 156 µM (Pseudomonas aeruginosa [7])
1 | O=P1(O)OC[C@H]2O[C@@H](n3cc(-c4ccc(F)c(F)c4)nn3)[C@H](O)[C@@H]2OP(=O)(O)OC[C@H]2O[C@@H](n3cc(-c4ccc(F)c(F)c4)nn3)[C@H](O)[C@@H]2O1 | inactive | inactive | inactive | 24.4% | 2 | 15.9% | 51.4%
2 | O=P1(O)OC[C@H]2O[C@@H](n3cc(-c4cccc(F)c4)nn3)[C@H](O)[C@@H]2OP(=O)(O)OC[C@H]2O[C@@H](n3cc(-c4cccc(F)c4)nn3)[C@H](O)[C@@H]2O1 | inactive | inactive | inactive | 30.6% | 2 | 7.15% | 57.7%
3 | O=P1(O)OC[C@H]2O[C@@H](n3cc(-c4cc(F)cc(F)c4)nn3)[C@H](O)[C@@H]2OP(=O)(O)OC[C@H]2O[C@@H](n3cc(-c4cc(F)cc(F)c4)nn3)[C@H](O)[C@@H]2O1 | inactive | inactive | inactive | 45.8% | 2 | 8.24% | 47.3%
4 | O=P1(O)OC[C@H]2O[C@@H](n3cc(-c4ccccc4)nn3)[C@H](O)[C@@H]2OP(=O)(O)OC[C@H]2O[C@@H](n3cc(-c4ccccc4)nn3)[C@H](O)[C@@H]2O1 | inactive | inactive | inactive | 39.9% | 2 | 24.1% | 44.2%
5 | Nc1nc2c(ncn2[C@@H]2O[C@@H]3COP(=O)(O)O[C@H]4[C@@H](O)[C@H](n5cnc6c(=O)[nH]c(N)nc65)O[C@@H]4COP(=O)(O)O[C@H]3[C@H]2O)c(=O)[nH]1 |  |  |  | 12.5% |  |  | 52.9%
6 | O=P1(O)OC[C@H]2O[C@@H](n3cc(-c4ccc(F)cc4)nn3)[C@H](O)[C@@H]2OP(=O)(O)OC[C@H]2O[C@@H](n3cc(-c4ccc(F)cc4)nn3)[C@H](O)[C@@H]2O1 | inactive | inactive | inactive | 25.1% | 2 | 4.86% | 57.9%
7 | O=P1(O)OC[C@H]2O[C@@H](n3cc(-c4ccncc4)nn3)[C@H](O)[C@@H]2OP(=O)(O)OC[C@H]2O[C@@H](n3cc(-c4ccncc4)nn3)[C@H](O)[C@@H]2O1 | inactive | inactive | inactive | 34.2% | 2 | 39.6% | 21.9%
8 | O=P1(O)OC[C@H]2O[C@@H](n3cc(-c4ccc(Br)cc4)nn3)[C@H](O)[C@@H]2OP(=O)(O)OC[C@H]2O[C@@H](n3cc(-c4ccc(Br)cc4)nn3)[C@H](O)[C@@H]2O1 | inactive | inactive | inactive | 35.1% | 2 | 21.2% | 46%
9 | COc1ccc(-c2cn([C@@H]3O[C@@H]4COP(=O)(O)O[C@H]5[C@@H](O)[C@H](n6cc(-c7ccc(OC)cc7)nn6)O[C@@H]5COP(=O)(O)O[C@H]4[C@H]3O)nn2)cc1 | inactive | inactive | inactive | 36.7% | 2 | 19% | 53.3%
10 | O=P1(O)OC[C@H]2O[C@@H](n3cc(-c4ccccc4F)nn3)[C@H](O)[C@@H]2OP(=O)(O)OC[C@H]2O[C@@H](n3cc(-c4ccccc4F)nn3)[C@H](O)[C@@H]2O1 | inactive | inactive | inactive | 39.1% | 2 | 16% | 59.4%

Source: ChEMBL document CHEMBL6109059, “Synthesis and biofilm inhibitory activity of cyclic dinucleotide analogues prepared with macrocyclic ribose-phosphate skeleton” (2025)
